Data: patent US20180161300A1, “CITRIN INHIBITORS FOR THE TREATMENT OF CANCER” (Yeda Research And Development Co. Ltd., priority 2015, published 2018)
Values belong to the compound of their own block, whether it stands above or below them.

Experiments:
Citrin [1] = assay: Western blot of citrin protein after shCitrin; format: cell-based, human; conditions: MDA-MB-435, Dox induction
Experimental: Cells were lysed in RIPA (Sigma-Aldrich) and 0.5% protease inhibitor cocktail (Calbiochem). After centrifugation, the supernatant was collected and protein content was evaluated by the Bradford assay. One hundred micrograms from each sample under reducing conditions were loaded into each lane and separated by electrophoresis on a 10% SDS polyacrylamide gel. After electrophoresis, proteins were transferred to Immobilon transfer membranes (Tamar). Non-specific binding was blocked by incubation with TBST (10 mM Tris-HCl (pH 8.0), 150 mM NaCl, 0.1% Tween 20), containing 3% albumin from bovine serum for 1 hour at 25° C. Membranes were subsequently incubated with antibodies against Citrin (1:200, H00010165-M01, Abnova), ASS1 (1:500, sc-99178, Santa Cruz Biotechnology) and p97 (1:10,000, PA5-22257, Thermo Scientific). Antibody was detected using peroxidase-conjugated AffiniPure goat anti-rabbit IgG or goat anti-mouse IgG (Jackson ImmunoResearch) and enhanced chemiluminescence Western blotting detection reagents (EZ-Gel, Biological Industries). Gels were quantified by Gel Doc XR+(BioRad) and analysed by ImageLab 4.1 software (BioRad). The band area was calculated by the intensity of the band. The obtained value was then divided by the value obtained from the loading control. […]

[2] = test system: U2OS human osteosarcoma cell-line transduced with shASS1; assay: Crystal violet proliferation, arginine deprivation combined with drug treatments; format: cell-based
Experimental: Cells were seeded in 12-well plates at 70,000 cells/well in a triplicate. Time 0 was calculated as the time the cells became adherent, which was after about 6 hours from plating. For each time point, cells were washed with PBS X1 and fixed in 4% PFA (in PBS). Cells were then stained with 0.1% Crystal Violet (Catalog #: C0775, Sigma-Aldrich) for 20 minutes (1 ml per well) and washed with water. Cells were then incubated with 10% acetic acid for 20 minutes with shaking. Extract was then diluted 1:4 in water and absorbance was measured at 590 nm every 24 hours.
U2OS human osteosarcoma cell-line was seeded in 6-well plates at 80,000 cells/well. The following day, cells were treated with either 100 nM Rapamycin (#R0395, Sigma-Aldrich) or with 10 μM 5FU (#F6627, Sigma-Aldrich) in regular medium, with 10% dialyzed FCS-arginine-free-RPMI (Catalogue No. 06-1104-34-1A, Biological Industries, Kibbutz beit-haemek, Israel), or with both arginine depleted medium and one of these drugs. Rapamycin and 5FU were renewed into the medium every day, whereas fresh arginine-free medium was supplemented twice a week.

Citrin [3] = target: T1, Citrin (Homo sapiens, UniProt Q9UJS0); assay: Metabolomics analysis for potential citrin inhibitors (15N-alpha-glutamine labelling, GC-MS); format: cell-based; parameters: endogenous in cells; host or cells: U2OS osteosarcoma cells; conditions: U2OS, 4 mM L-Glutamine (ALPHA-15N), compound 10-100 μM, 24 hours
T1 sequence (Q9UJS0 1-675): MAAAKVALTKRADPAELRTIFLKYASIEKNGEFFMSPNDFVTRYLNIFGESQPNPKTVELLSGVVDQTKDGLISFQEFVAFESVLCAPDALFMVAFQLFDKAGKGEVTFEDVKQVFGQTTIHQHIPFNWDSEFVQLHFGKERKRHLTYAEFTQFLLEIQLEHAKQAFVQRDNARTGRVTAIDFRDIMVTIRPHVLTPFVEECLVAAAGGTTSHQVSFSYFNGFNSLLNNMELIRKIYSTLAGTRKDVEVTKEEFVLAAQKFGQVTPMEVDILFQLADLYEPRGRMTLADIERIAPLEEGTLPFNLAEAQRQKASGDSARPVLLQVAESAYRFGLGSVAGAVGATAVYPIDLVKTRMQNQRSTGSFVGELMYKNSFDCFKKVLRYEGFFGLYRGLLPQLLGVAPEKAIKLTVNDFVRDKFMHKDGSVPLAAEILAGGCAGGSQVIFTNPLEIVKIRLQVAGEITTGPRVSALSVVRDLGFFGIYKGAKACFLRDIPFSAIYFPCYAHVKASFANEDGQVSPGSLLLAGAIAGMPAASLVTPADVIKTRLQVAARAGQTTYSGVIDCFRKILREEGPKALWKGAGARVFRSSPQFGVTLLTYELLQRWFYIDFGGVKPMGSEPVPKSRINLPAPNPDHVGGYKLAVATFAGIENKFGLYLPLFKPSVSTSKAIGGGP
Experimental: Osteosarcoma cell line (U2OS) were seeded at 1.5 to 2×10^6 cells per 10 cm plate. The next day (60% confluence) the cells were incubated with 4 mM of L-Glutamine (ALPHA-15N, 98%; Cat. Number: NLM-1016-1; Cambridge Isotope Laboratories) in the presence of either control (medium only) or one of compounds 1, 2, or 3 (at a concentration range between 10-100 μM), for 24 hours. Compound “1”=D-Glutamic acid; compound “2”=L-glutamic acid-5-methyl ester; “compound “3”=L-glutamic acid-gamma-benzyl ester. Compounds 1-3 are commercially available and were bought from Sigma Aldrich. Subsequently, cells were washed with ice-cold saline, lysed with 50% methanol in water and quickly scraped followed by three freeze-thaw cycles in liquid nitrogen. The insoluble material was pelleted in a cooled centrifuge (4° C.) and the supernatant was collected for consequent GC-MS analysis. Samples were dried under air flow at 42° C. using a Techne Dry-Block Heater with sample concentrator (Bibby Scientific) and the dried samples were treated with 40 μl of a methoxyamine hydrochloride solution (20 mg ml^−1 in pyridine) at 37° C. for 90 minutes while shaking followed by incubation with 70 μl N,O-bis (trimethylsilyl) trifluoroacetamide (Sigma) at 37° C. for an additional 30 minutes.
GC-MS analysis used a gas chromatograph (7820AN, Agilent Technologies) interfaced with a mass spectrometer (5975 Agilent Technologies). An HP-5 ms capillary column 30 m×250 μm×0.25μm (19091S-433, Agilent Technologies) was used. Helium carrier gas was maintained at a constant flow rate of 1.0 ml min −1. The GC column temperature was programmed from 70 to 150° C. via a ramp of 4° C. min −1, […] via a ramp of 9° C. min −1, 215-300° C. via a ramp of 25° C. min −1 and maintained at 300° C. for an additional 5 minutes. The MS was by electron impact ionization and operated in full-scan mode from m/z=30-500. The inlet and MS transfer line temperatures were maintained at 280° C., and the ion source temperature was 250° C. Sample injection (1 μl) was in splitless mode.
Specifically, Aspartate at a mass of M+1 is a metabolite that comes out of the mitochondria via Citrin.

Citrin [4] = target: T1, Citrin; conditions: at 1 about mM; cited from earlier work

Compound: 5′-TTAAGAAAGTGCTACGCTA-3′ (expressed or natural sequence) [sh901]
citrin protein production (Western blot) (Citrin [1]): no production of citrin

Compound: O=c1[nH]cc(F)c(=O)[nH]1 [5FU, Fluorouracil]
proliferation, drug together with arginine depleted medium ([2]; U2OS shASS1, arginine depleted medium plus 100 nM Rapamycin or 10 μM 5FU): significant additive beneficial effect
proliferation, isolated drug treatment ([2]; U2OS shASS1, complete medium, 100 nM Rapamycin or 10 μM 5FU): more beneficial than Rapamycin

Uracil M+1 inhibition (in words) (Citrin [3]): inhibited
Compound: COC(=O)CC[C@H](N)C(=O)O [Compound 2, L-glutamic acid-5-methyl ester]

Aspartate M+1 relative to control (Citrin [3]): inhibited
Uracil M+1 inhibition (Citrin [3]): ~35%
Compound: N[C@@H](CCC(=O)OCc1ccccc1)C(=O)O [Compound 3, L-glutamic acid-gamma-benzyl ester]

Compound: CCN1C(=O)C=CC1=O [N-ethylmaleimid]
inhibition of citrin in vitro (Citrin [4]): about 50%

Compound: N[C@H](CCC(=O)O)C(=O)O [Compound 1, D-Glutamic acid]
Uracil M+1 inhibition (in words) (Citrin [3]): inhibited

Compound: 5′-GTATCCTATCGATCTTGTA-3′ (expressed or natural sequence) [sh909]
citrin protein production (Western blot) (Citrin [1]): no production of citrin
